Laboratory results reported in patent US6331610A, “Method for treating AIDS and HIV infection using select peptides from the beta subunit of human chorionic gonadotropin” (priority 1997, dated 2001).
“Also recorded” adds a separate entry of the source.

How the values were obtained:
[1] = test system: IIIB strain of HIV-1; assay: Anti-HIV effect: protection of MT-4 T lymphocytes from HIV-caused cell death (XTT assay); format: cell-based; settings: MT-4, HIV-1 IIIB, 100 mcg-1 ng per ml, 5-7 days
Procedure: Viability=100%×[(ODT)-(ODD)]/[(ODM)-(ODD)]
Where ODT is optical density values of culture wells treated with test peptides; ODM optical density of mock-infected cells; ODD light absorbance values of untreated cells dead from exposure to HIV.
The serial ten-fold dilutions (100 mcg-1 ng per ml) of 6 different synthetic peptides representing N-terminal and core region of hCG were tested for their effect on HIV replication (FIG. 1). […] In these experiments the viability of MT4 was determined after 5-7 days of continuous presence of the virus and hCG peptide fragment in the target cell culture.

[2] = test system: MT-4 cells; settings: 100 ng/ml and concentrations up to 1,000-fold higher
Procedure: MT-4 T lymphocytes (5×10^4 cells/ml) were seeded in 96well plates and exposed to IIIB strain of HIV-1 (at MOI equal to 100 infectious doses) in the presence of ten-fold, serial dilutions of hCG peptides (range 100 mcg-1 ng per ml). […] The tests were repeated three times with duplicates for each dilution of an individual peptide. All cultures were grown in RPMI-1640/10% FBS medium supplemented witi L-glutamine and penicillin/streptomycin. The culture plates were kept in a humidified incubator with 5% CO2 at 37° C. […] This difference in the survival pattern, indicative of the antiviral activity, was quantitated by tetrazolium salt XTT assay. This assay is based on the rationale that the viability of MT-4 correlates directly with the activity of mitochondrial hydrogenases converting XTT into optically dense formazan dye. […] At the appropriate time 1 mg/ml of XTT (Sigma, St Louis, Mo.) was nixed with 1% w/v phenazine methosulfate (Aldrich, Milwaukee, Wis.) and 20 mcl of the mixture was added to the wells for 4 hours. The optical density of formazan was then determined in a plate reader at 450 nm with reference filter at 620 nm. The proportion of surviving MT-4 cells treated with hCG peptides was calculated as a function of the viability of mock-infected cells in relation to positive control wells containing untreated cells dead from exposure to HIV.

Compound	anti-HIV effect (in words) [1]	toxicity to cells employed in the assay [2]
K20 EGCPVCITVN30 TT (KEGCPVCITVNTT) [peptide #1]	active at nanogram doses	–
CC[C@H](C)[C@H](NC(=O)[C@@H]1CCCN1C(=O)[C@@H](NC(=O)[C@H](CC(=O)O)NC(=O)[C@H](CO)NC(=O)[C@@H]1CCCN1C(=O)CNC(=O)[C@@H]1CCCN1C(=O)[C@H](CC(C)C)NC(=O)[C@H](CCCNC(=N)N)NC(=O)[C@H](CO)NC(=O)[C@@H]1CCCN1C(=O)[C@H](CO)NC(=O)[C@@H]1CCCN1C(=O)[C@H](CC(C)C)NC(=O)[C@H](CO)NC(=O)[C@@H]1CCCN1C(=O)[C@@H]1CCCN1C(=O)[C@@H]1CCCN1C(=O)[C@H](C)NC(=O)[C@H](CCCCN)NC(=O)[C@H](CO)NC(=O)[C@H](CO)NC(=O)[C@H](CO)NC(=O)[C@H](CO)NC(=O)[C@H](CC(=O)O)NC(=O)[C@H](CCC(N)=O)NC(=O)[C@H](Cc1ccccc1)NC(=O)[C@H](CCCNC(=N)N)NC(=O)[C@@H]1CCCN1C(=O)[C@H](CC(=O)O)NC(=O)[C@H](CC(=O)O)NC(=O)[C@H](CS)NC(=O)[C@@H](NC(=O)[C@H](CC(C)C)NC(=O)[C@@H]1CCCN1C(=O)[C@@H](N)Cc1c[nH]cn1)[C@@H](C)O)[C@@H](C)O)C(=O)N[C@@H](CC(C)C)C(=O)N1CCC[C@H]1C(=O)N[C@@H](CCC(N)=O)C(=O)O [CTP of hCG]	–	not toxic
C100 GGPKDHPLTC110 DD (CGGPKDHPLTCDD) [compound 7]	active; also recorded: restricted effect	–
